Data: publication PMC6217055 (Theranostics, 2018)

Columns and labels:
[1] = tested on: six solid tumour cell lines; test: CCK-8 cytotoxicity, summary over six cell lines; format: cell-based; conditions: read-out: IC50 values in these cell lines
4T1-Fluc tumour = test: 4T1-Fluc BALB/c homograft mouse model; format: in vivo; conditions: daily oral; vorinostat, abemaciclib 60 mg/kg
[2] = tested on: MDA-MB-468, MDA-MB-231, SK-OV-3 and OVCAR-5 cells; test: cell cycle assay; format: cell-based, human; conditions: 48 h, quarter, half of IC50 and IC50

CCN1CCN(Cc2ccc(Nc3ncc(F)c(-c4cc(F)c5nc(C)n(C(C)C)c5c4)n3)nc2)CC1 [Abemaciclib]
IC50 [1]: > 1000 nM
tumour volume (4T1-Fluc tumour): decreased only slightly
cell cycle distribution (G1-phase arrest) [2]: did not induce G1 to S phase arrest

O=C(CCCCCCC(=O)Nc1ccccc1)NO [Vorinostat]
tumour volume (4T1-Fluc tumour): barely impacted
cell cycle distribution (G1-phase arrest) [2]: did not induce G1 to S phase arrest
